Data reported in patent publication US10329305B2, “Amorphous solid form of a BET protein inhibitor” (Incyte Corporation, priority 2015, dated 2019).
In brackets after ≈: the same amount, converted by molar mass.

How the values were obtained:
Assay type in all cases: physicochemical
[1] = Glass transition temperature by modulated DSC (MDSC); conditions: ramp rate 2° C./min, 10-150° C.
Description: The glass transition temperature (Tg) was determined to be 105.8° C. by modulated DSC (MDSC) using TA Instruments Differential Scanning calorimetry, Model Q2000 with autosampler. The MDSC instrument conditions were as follows: modulation temperature amplitude: ±1° C.; modulation: 60 second; ramp rate: 2° C./min; temperature range: 10-150° C.; Tzero aluminum sample pan and lid; and nitrogen gas flow at 50 mL/min.

[2] = Formulation of amorphous Compound 1-(S): solubility in vehicles; conditions: for solubility: aqueous with cosolvent or surfactant or cyclodextrin, thermodynamic from solid
Description: Amorphous Compound 1-(S) was formulated as described in the table below. Table 2 indicates the target concentration, final pH, solubility, and some observation of the resulting formulations.

[3] = Stability of amorphous Compound 1-(S) under elevated temperature and humidity (Karl-Fischer water content, HPLC/UV purity, XRPD); conditions: for Solid Form (XRPD) / Purity 220 nm / Purity 254 nm / Water content: open vial; for Purity 220 nm / Purity 254 nm: HPLC/UV; for Water content: Karl-Fischer
Description: Table 1 indicates the conditions/time to which the amorphous form was subjected and provides the measured water content (Karl-Fischer analysis) and purity (by HPLC/UV). The HPLC/UV instrument was Agilent HPLC 1100 with an Agilent Zorbax SB-C18, 3.5 μm, 4.6×150 mm column. The HPLC conditions were as follows: column temperature: 40° C.; mobile phase A (MPA): 0.05% (v/v) trifluoroacetic acid (TFA) in water; mobile phase B (MPB): 0.05% (v/v) TFA in acetonitrile; and flow rate: 1 mL/min.
The gradient conditions were as follows: […]

Cc1noc(C)c1-c1ccc2[nH]c(=O)n3c2c1OC[C@@H]3c1ccccn1 [Amorphous Compound 1-(S), (4S)-7-(3,5-dimethylisoxazol-4-yl)-4-pyridin-2-yl-4,5-dihydroimidazo[1,5,4-de][1,4]benzoxazin-2(1H)-one]
glass transition temperature (Tg) [1]: 105.8 °C | Observations ([2]; 0.5% MC in 50 mM citrate, pH 3.0, target concentration 0.5 mg/mL): solution | Observations ([2]; 0.5% MC in 50 mM citrate, pH 3.0, target concentration 2.5 mg/mL): suspension | Observations ([2]; 0.5% MC in water, target concentration 0.5 mg/mL): solution | Observations ([2]; 0.5% MC in water, target concentration 2.5 mg/mL): suspension | Observations ([2]; 10% TPGS in 50 mM citrate, pH 3.0, target concentration 2.5 mg/mL): solution | solubility ([2]; 0.5% MC in 50 mM citrate, pH 3.0, target concentration 0.5 mg/mL, final pH 3.00): > 500 µg/mL | solubility ([2]; 0.5% MC in 50 mM citrate, pH 3.0, target concentration 2.5 mg/mL, final pH 3.03): 1150 µg/mL (≈ 3300 µM) | solubility ([2]; 0.5% MC in water, target concentration 0.5 mg/mL, final pH 6.76): > 500 µg/mL | solubility ([2]; 0.5% MC in water, target concentration 2.5 mg/mL, final pH 7.87): 842 µg/mL (≈ 2420 µM) | solubility ([2]; 10% TPGS in 50 mM citrate, pH 3.0, target concentration 2.5 mg/mL, final pH 3.07): > 2500 µg/mL | Solid Form (XRPD) ([3]; 40° C./75% RH, 0 weeks): Amorphous | Purity 220 nm ([3]; 40° C./75% RH, 0 weeks): 98.22% | Purity 254 nm ([3]; 40° C./75% RH, 0 weeks): 97.10% | Water content ([3]; 40° C./75% RH, 0 weeks): 1.67% | Purity 220 nm ([3]; 40° C./75% RH, 1 week): 98.22% | Purity 254 nm ([3]; 40° C./75% RH, 1 week): 97.10% | Water content ([3]; 40° C./75% RH, 1 week): 3.39% | Solid Form (XRPD) ([3]; 40° C./75% RH, 2 weeks): Amorphous | Purity 220 nm ([3]; 40° C./75% RH, 2 weeks): 98.18% | Purity 254 nm ([3]; 40° C./75% RH, 2 weeks): 97.10% | Water content ([3]; 40° C./75% RH, 2 weeks): 2.64% | Solid Form (XRPD) ([3]; 50° C., 0 weeks): Amorphous | Purity 220 nm ([3]; 50° C., 0 weeks): 98.22% | Purity 254 nm ([3]; 50° C., 0 weeks): 97.10% | Water content ([3]; 50° C., 0 weeks): 1.67% | Purity 220 nm ([3]; 50° C., 1 week): 98.12% | Purity 254 nm ([3]; 50° C., 1 week): 97.11% | Water content ([3]; 50° C., 1 week): 0.69% | Solid Form (XRPD) ([3]; 50° C., 2 weeks): Amorphous | Purity 220 nm ([3]; 50° C., 2 weeks): 98.23% | Purity 254 nm ([3]; 50° C., 2 weeks): 97.11% | Water content ([3]; 50° C., 2 weeks): 0.43% | physical stability ([3]; elevated temperature and humidity): physically stable
